Patent US20250255857A1, “METHODS OF TREATING ANDROGEN RECEPTOR-INDEPENDENT PROSTATE CANCER” (FOGHORN THERAPEUTICS INC., priority 2022, published 2025)
Values joined by “and” are separate entries in the source; they are usually repeats but may differ in a detail not shown here. Equal entries are not always repeated. Where two headings read alike, the source gives them in different places.

Columns and labels:
[1] = Plasma concentration of Compound 1 in DU145 PK/PD cohort; format: in vivo; details: for concentration at 72 h: BALA/c nude (sic, BALB/c nude); for concentration at 72 h / concentration at 4 h: mouse, plasma, intraperitoneal; for concentration at 4 h: BALB/c nude
Procedure: (§1) Procedure: The experimental details of the studies, including tumor model, mouse strain, cell number implanted, vehicle used, days of treatment, treatment details, and average tumor size at start of dosing are outlined in Table 3. All study mice were obtained and the studies were conducted at Pharmaron. Each mouse was inoculated subcutaneously on the right flank with the single cell suspension of DU145 human prostate cancer tumor cells (5×10^6) in 0.1 mL with Matrigel (1:1) in MEM with 10% FBS for tumor development.
(§2) Based on tumor volume, mice were randomly assigned to respective groups using a computer-generated randomization procedure. The study groups and the number of animals per group are shown in Table 4A (efficacy study) and Table 4B (PKPD study).
(§3) Treatment for the PKPD cohort was initiated when the mean tumor volume reached 281 mm^3 on Day 14 post tumor cell inoculation. Animals were randomized into 5 groups: 1) Vehicle Control, 3 doses intraperitoneally (IP); 2) Compound 1 at 1 mg/kg, single dose IP; 3) Compound 1 at 15 mg/kg, single dose IP; 4) Compound 1 at 1 mg/kg, 3 doses IP; and 5) Compound 1 at 15 mg/kg, 3 doses IP.
(§4) In the case of an animal reaching a tumor size exceeding 2000 mm^3, the entire group was terminated. Plasma and tumor samples were collected at 4 hours and 72 hours post last dose for all groups. For the PKPD Cohort, the tumors were cut into 2 pieces: one for Western Blotting (WB) with BRD9 analysis, and one for RNAseq analysis. For the Efficacy Cohort, the tumors were analyzed for BRD9 levels by Western Blotting (WB).

BRD9 protein = biological target: T1, BRD9 protein (Homo sapiens, UniProt Q9H8M2); experiment: BRD9 levels in DU145 tumors by Western Blotting (PK/PD cohort); format: in vivo; details: for BRD9 protein degradation (Western Blot): 72 h post last dose, P<0.05 vs. vehicle control
T1 construct: endogenous in cells; host or cells: DU145 human prostate cancer cells grown as subcutaneous xenograft tumors in mice
T1 sequence (Q9H8M2 1-597): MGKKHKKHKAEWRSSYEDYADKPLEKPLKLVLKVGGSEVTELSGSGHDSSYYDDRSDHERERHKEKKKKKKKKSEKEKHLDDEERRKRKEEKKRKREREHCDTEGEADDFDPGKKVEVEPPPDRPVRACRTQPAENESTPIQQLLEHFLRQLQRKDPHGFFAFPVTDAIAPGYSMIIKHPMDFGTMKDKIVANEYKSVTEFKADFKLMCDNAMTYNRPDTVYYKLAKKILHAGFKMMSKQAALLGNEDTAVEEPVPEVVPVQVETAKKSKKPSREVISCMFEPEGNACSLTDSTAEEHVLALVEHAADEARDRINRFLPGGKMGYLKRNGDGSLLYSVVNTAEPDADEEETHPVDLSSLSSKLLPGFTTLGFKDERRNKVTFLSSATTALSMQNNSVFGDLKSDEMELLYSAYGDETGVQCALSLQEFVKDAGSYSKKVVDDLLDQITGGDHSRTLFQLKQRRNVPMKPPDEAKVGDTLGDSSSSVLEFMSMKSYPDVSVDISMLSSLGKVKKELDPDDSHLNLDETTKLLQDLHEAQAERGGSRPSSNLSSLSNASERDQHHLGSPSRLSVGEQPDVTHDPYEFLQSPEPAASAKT
Procedure: as §1, §2, §3, §4

## COc1cc(-c2cn(C)c(=O)c3cnc(N4CCC4)cc23)cc(OC)c1CN1CCC(CN2CCC3(CC2)CN(c2ccc4c(c2)C(=O)N(C2CCC(=O)NC2=O)C4)C3)CC1 (stereo not shown) [Compound 1, 3-(6-(7-((1-(4-(6-(azetidin-1-yl)-2-methyl-1-oxo-1,2-dihydro-2,7-naphthyridin-4-yl)-2,6-dimethoxybenzyl)piperidin-4-yl)methyl)-2,7-diazaspiro[3.5]nonan-2-yl)-1-oxoisoindolin-2-yl) piperidine-2,6-dione]
[1]; 1 mg/kg BIW 3 doses IP, 4 hours post last dose, group 4
  Plasma Concentration of Compound 1 (individual mice): 10.9 ng/mL and 14.4 ng/mL and 6.89 ng/mL
[1]; 1 mg/kg BIW 3 doses IP, 72 hours post last dose, group 4
  Plasma Concentration of Compound 1 (individual mice): 2.75 ng/mL and 1.85 ng/mL
[1]; 1 mg/kg IP
  difference in PK between a single dose or three doses: No difference in PK
[1]; 1 mg/kg single dose IP, 4 hours post last dose, group 2
  Plasma Concentration of Compound 1 (individual mice): 18.0 ng/mL and 9.37 ng/mL and 8.07 ng/mL
[1]; 1 mg/kg single dose IP, 72 hours post last dose, group 2, BLOQ = below quantifiable limit of 1.05 ng/mL
  Plasma Concentration of Compound 1 (individual mice): 1.59 ng/mL and BLOQ*
[1]; 15 mg/kg BIW 3 doses IP, 4 hours post last dose, group 5
  Plasma Concentration of Compound 1 (individual mice): 63.4 ng/mL and 71.3 ng/mL
[1]; 15 mg/kg BIW 3 doses IP, 72 hours post last dose, group 5
  Plasma Concentration of Compound 1 (individual mice): 10.5 ng/mL and 6.77 ng/mL
[1]; 15 mg/kg IP
  PK exposure, single dose vs three doses: 15 mg/kg (single dose) group had better PK exposure than the 15 mg/kg (three doses) group
[1]; 15 mg/kg single dose IP, 4 hours post last dose, group 3
  Plasma Concentration of Compound 1 (individual mice): 132 ng/mL and 92.3 ng/mL
[1]; 15 mg/kg single dose IP, 72 hours post last dose, group 3
  Plasma Concentration of Compound 1 (individual mice): 15.7 ng/mL and 50.2 ng/mL and 28.6 ng/mL
[1]; 1 mg/kg, 1 mg/kg BIW 3 doses IP, 72 hours post last dose, group 4, read-out: Plasma Concentration of Compound 1 (individual mice)
  concentration at 72 h: 2.02 ng/mL
[1]; 1 mg/kg, 1 mg/kg BIW 3 doses IP, 72 hours post last dose, group 4, read-out: Plasma Concentration of Compound 1, Mean
  concentration at 72 h: 2.21 ng/mL
[1]; 1 mg/kg, 1 mg/kg single dose IP, 72 hours post last dose, group 2, BLOQ = below quantifiable limit of 1.05 ng/mL, read-out: Plasma Concentration of Compound 1 (individual mice)
  concentration at 72 h: 1.18 ng/mL
[1]; 1 mg/kg, 1 mg/kg single dose IP, 72 hours post last dose, group 2, read-out: Plasma Concentration of Compound 1, Mean
  concentration at 72 h: 1.39 ng/mL
[1]; 15 mg/kg, 15 mg/kg BIW 3 doses IP, 72 hours post last dose, group 5, read-out: Plasma Concentration of Compound 1 (individual mice)
  concentration at 72 h: 6.43 ng/mL
[1]; 15 mg/kg, 15 mg/kg BIW 3 doses IP, 72 hours post last dose, group 5, read-out: Plasma Concentration of Compound 1, Mean
  concentration at 72 h: 7.9 ng/mL
[1]; 15 mg/kg, 15 mg/kg single dose IP, 72 hours post last dose, group 3, read-out: Plasma Concentration of Compound 1, Mean
  concentration at 72 h: 31.5 ng/mL
[1]; 1 mg/kg, 1 mg/kg BIW 3 doses IP, 4 hours post last dose, group 4, read-out: Plasma Concentration of Compound 1, Mean
  concentration at 4 h: 10.8 ng/mL
[1]; 1 mg/kg, 1 mg/kg single dose IP, 4 hours post last dose, group 2, read-out: Plasma Concentration of Compound 1, Mean
  concentration at 4 h: 11.8 ng/mL
[1]; 15 mg/kg, 15 mg/kg BIW 3 doses IP, 4 hours post last dose, group 5, read-out: Plasma Concentration of Compound 1 (individual mice)
  concentration at 4 h: 82.9 ng/mL
[1]; 15 mg/kg, 15 mg/kg BIW 3 doses IP, 4 hours post last dose, group 5, read-out: Plasma Concentration of Compound 1, Mean
  concentration at 4 h: 72.5 ng/mL
[1]; 15 mg/kg, 15 mg/kg single dose IP, 4 hours post last dose, group 3, read-out: Plasma Concentration of Compound 1 (individual mice)
  concentration at 4 h: 147 ng/mL
[1]; 15 mg/kg, 15 mg/kg single dose IP, 4 hours post last dose, group 3, read-out: Plasma Concentration of Compound 1, Mean
  concentration at 4 h: 124 ng/mL
[1]; DU145 PK/PD cohort, 1 and 15 mg/kg IP, 4 h and 72 h post last dose
  exposures in plasma, in words: time and dose dependent exposures
[1]; at each dose level (1 and 15 mg/kg IP)
  exposure difference between a single dose and three doses: no obvious exposure difference
BRD9 protein; 15 mg/kg single dose IP
  BRD9 protein degradation (Western Blot): statistically and significantly degrade BRD9 protein
BRD9 protein; 15 mg/kg three doses IP
  BRD9 protein degradation (Western Blot): statistically and significantly degrade BRD9 protein
BRD9 protein; DU145 AR-negative prostate CDX model
  correlation of plasma PK with in vivo BRD9 degradation: positively corelates
